Experimental data from US10435399B2, “HDAC6 inhibitory heterocyclic compound” (TAKEDA PHARMACEUTICAL COMPANY LIMITED, priority 2017, dated 2019).

Molecular target: T1, HDAC6 enzyme (Homo sapiens, UniProt Q9UBN7)
T1 construct: transducing full length HDAC6 gene into Sf-9 insect cells; GST; purchased SignalChem; host or cells: Sf-9 insect cells
T1 sequence (Q9UBN7 1-1215): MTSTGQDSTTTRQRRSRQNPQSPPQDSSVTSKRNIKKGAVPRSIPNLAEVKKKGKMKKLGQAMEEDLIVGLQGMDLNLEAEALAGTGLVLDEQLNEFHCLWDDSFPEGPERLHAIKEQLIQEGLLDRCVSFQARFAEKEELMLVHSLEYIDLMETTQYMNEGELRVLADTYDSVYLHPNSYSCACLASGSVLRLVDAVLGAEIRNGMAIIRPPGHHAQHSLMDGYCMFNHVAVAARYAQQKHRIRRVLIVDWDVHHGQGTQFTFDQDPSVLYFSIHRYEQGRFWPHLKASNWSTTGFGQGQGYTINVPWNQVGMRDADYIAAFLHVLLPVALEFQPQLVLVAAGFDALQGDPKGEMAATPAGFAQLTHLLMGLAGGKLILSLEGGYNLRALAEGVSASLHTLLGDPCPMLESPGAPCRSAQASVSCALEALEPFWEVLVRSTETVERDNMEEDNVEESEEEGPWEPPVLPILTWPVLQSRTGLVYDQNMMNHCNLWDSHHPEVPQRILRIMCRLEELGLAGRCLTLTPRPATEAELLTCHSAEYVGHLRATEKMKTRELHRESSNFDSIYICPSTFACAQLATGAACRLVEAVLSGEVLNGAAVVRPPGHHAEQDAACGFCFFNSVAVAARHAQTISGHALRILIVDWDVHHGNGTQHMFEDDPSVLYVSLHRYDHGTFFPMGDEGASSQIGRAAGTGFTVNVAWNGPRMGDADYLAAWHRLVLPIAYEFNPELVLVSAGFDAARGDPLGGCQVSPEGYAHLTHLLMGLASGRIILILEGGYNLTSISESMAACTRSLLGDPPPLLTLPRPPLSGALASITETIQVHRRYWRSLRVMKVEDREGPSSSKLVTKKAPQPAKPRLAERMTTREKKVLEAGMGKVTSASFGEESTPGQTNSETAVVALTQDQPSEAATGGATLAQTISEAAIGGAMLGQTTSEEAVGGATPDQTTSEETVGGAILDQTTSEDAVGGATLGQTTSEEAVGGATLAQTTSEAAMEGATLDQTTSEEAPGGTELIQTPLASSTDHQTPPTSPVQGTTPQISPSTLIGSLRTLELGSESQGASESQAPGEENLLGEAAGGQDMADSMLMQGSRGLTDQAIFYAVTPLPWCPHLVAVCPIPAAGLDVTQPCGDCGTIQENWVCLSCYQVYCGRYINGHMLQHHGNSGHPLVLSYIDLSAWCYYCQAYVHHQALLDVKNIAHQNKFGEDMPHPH
Experiment: HDAC6 enzyme inhibitory activity (HDAC-Glo I/II Assay kit)
Format: biochemical
Conditions: 10 μM; wells without enzyme = 100% inhibition; read-out: HDAC6 inhibitory rate (%) (10 μM)
Procedure: HDAC6 enzyme prepared by transducing full length HDAC6 gene into Sf-9 insect cells and purifying by GST affinity column were purchased from SignalChem. Using this enzyme, HDAC6 enzyme inhibitory activities of the compound of the present invention were evaluated. Enzymes were used after preserved at −70° C. HDAC6 enzyme inhibitory activity of the compound of the present invention was measured using HDAC-Glo™ I/II Assay kit (Promega) according to the following experimental method. The test compound diluted with assay buffer (24 mM Tris-HCl (pH 7.5), 1 mM MgCl2, 0.35 mM KCl, 135 mM NaCl, 0.6 mM Glutathione, 0.01% Tween-20) was added to a 384-well plate by each 2 μL. Then, HDAC6 enzyme solution diluted with assay buffer was added thereto by each 4 μL, and the plate was incubated at room temperature for 60 min. After incubated, HDAC substrate-Developer solution prepared according to Promega protocol attached to the assay kit was added to the 384-well plate by each 2 μL, and the enzyme reaction was started. After reacting at room temperature for 20 min, luminescence level was measured using plate reader Envision (PerkinElmer). The inhibitory activity of each compound of Example was calculated as a relative activity value when luminescence level in wells without enzyme is considered as 100% inhibition.

inhibition at 10 µM	SMILES
101%	O=C(N[C@@H]1CCCC[C@H]1N1Cc2ccc(-c3nnc(C(F)F)o3)cc2C1=O)[C@H]1C[C@H]1F (mixture of isomers) [Example 111, (1RS,2RS)-N-((1R,2R)-2-(6-(5-(difluoromethyl)-1,3,4-oxadiazol-2-yl)-1-oxo-1,3-dihydro-2H-isoindol-2-yl)cyclohexyl)-2-fluorocyclopropanecarboxamide]
101%	O=C(N[C@@H]1CCCC[C@H]1N1Cc2ccc(-c3nnc(C(F)F)o3)cc2C1=O)[C@@H]1C[C@H]1F (racemic) [Example 69, (1SR,2RS)-N-((1R,2R)-2-(6-(5-(difluoromethyl)-1,3,4-oxadiazol-2--yl)-1-oxo-1,3-dihydro-2H-isoindol-2-yl)cyclohexyl)-2-fluorocyclopropanecarboxamide]
100%	COC(=O)N1CC[C@@H](c2ccc(F)cc2)[C@H](N2Cc3ccc(-c4nnc(C(F)F)o4)cc3C2=O)C1 (racemic) [Example 504, methyl (3SR,4SR)-3-(6-(5-(difluoro-methyl)-1,3,4-oxadiazol-2-yl)-1-oxo-1,3-dihydro-2H-isoindol-2-yl)-4-(4-fluoro-phenyl) piperidine-1-carboxylate]
99%	O=C1c2cc(-c3nnc(C(F)F)o3)ccc2CN1[C@@H]1CCCC[C@H]1n1cccn1 (racemic) [Example 514, 6-(5-(difluoromethyl)-1,3,4-oxadiazol-2-yl)-2-((1RS,2RS)-2-(1H-pyrazol-1-yl)cyclohexyl)isoindolin-1-one]
101%	O=C1c2cc(-c3nnc(C(F)F)o3)cnc2CN1[C@@H]1CCCC[C@H]1n1cccn1 (racemic) [Example 526, 3-(5-(difluoromethyl)-1,3,4-oxadiazol-2-yl)-6-((1RS,2RS)-2-(1H-pyrazol-1-yl)cyclohexyl)-6,7-dihydro-5H-pyrrolo[3,4-b]pyridin-5-one]
99%	O=C1c2cc(-c3nnc(C(F)F)o3)ccc2CN1[C@H]1CCCC[C@H]1n1cccn1 (racemic) [Example 527, 6-(5-(difluoromethyl)-1,3,4-oxadiazol-2-yl)-2-((1SR,2RS)-2-(1H-pyrazol-1-yl)cyclohexyl)isoindolin-1-one]
99%	O=C1c2cc(-c3nnc(C(F)F)o3)cnc2CN1[C@@H]1CCCC[C@H]1Oc1ccc(F)cc1 (racemic) [Example 535, 3-(5-(difluoromethyl)-1,3,4-oxadiazol-2-yl)-6-((1RS,2RS)-2-(4-fluorophenoxy)cyclohexyl)-6,7-dihydro-5H-pyrrolo[3,4-b]pyridin-5-one]
99%	O=C1c2cc(-c3nnc(C(F)F)o3)cnc2CN1[C@H]1CCCC[C@H]1n1cccn1 (racemic) [Example 541, 3-(5-(difluoromethyl)-1,3,4-oxadiazol-2-yl)-6-((1SR,2RS)-2-(1H-pyrazol-1-yl)cyclohexyl)-6,7-dihydro-5H-pyrrolo[3,4-b]pyridin-5-one]
100%	O=C(C(F)F)N1CC[C@@H](c2ccc(F)cc2)[C@H](N2Cc3ccc(-c4nnc(C(F)F)o4)cc3C2=O)C1 (racemic) [Example 546, 2-((3SR,4SR)-1-(difluoroacetyl)-4-(4-fluorophenyl)piperidin-3-yl)-6-(5-(difluoromethyl)-1,3,4-oxadiazol-2-yl)isoindolin-1-one]
100%	O=C1c2cc(-c3nnc(C(F)F)o3)ccc2CN1[C@@H]1CN(C(=O)C(F)(F)C(F)(F)F)CC[C@H]1c1ccc(F)cc1 (racemic) [Example 548, 6-(5-(difluoromethyl)-1,3,4-oxadiazol-2-yl)-2-((3SR,4SR)-4-(4-fluorophenyl)-1-(2,2,3,3,3-pentafluoropropanoyl)piperidin-3-yl)isoindolin-1-one]
100%	O=C1c2cc(-c3nnc(C(F)F)o3)ccc2CN1[C@@H]1CCCC[C@H]1c1ncco1 (racemic) [Example 549, 6-(5-(difluoromethyl)-1,3,4-oxadiazol-2-yl)-2-((1RS,2RS)-2-(1,3-oxazol-2-yl)cyclohexyl)isoindolin-1-one]
97%	N#C[C@@H]1CCCC[C@H]1N1Cc2ccc(-c3nnc(C(F)F)o3)cc2C1=O (racemic) [Example 556, (1RS,2RS)-2-(6-(5-(difluoromethyl)-1,3,4-oxadiazol-2-yl)-1-oxo-1,3-dihydro-2H-isoindol-2-yl)cyclohexanecarbonitrile]
99%	O=C1c2cc(-c3nnc(C(F)F)o3)ccc2CN1[C@@H]1CCCC[C@H]1c1noc(C2CC2)n1 (racemic) [Example 558, 2-((1RS,2RS)-2-(5-cyclopropyl-1,2,4-oxadiazol-3-yl)cyclohexyl)-6-(5-(difluoromethyl)-1,3,4-oxadiazol-2-yl)isoindolin-1-one]
100%	O=C1c2cc(-c3nnc(C(F)F)o3)ccc2CN1[C@@H]1CCCC[C@H]1Oc1cncc(F)c1 (racemic) [Example 559, 6-(5-(difluoromethyl)-1,3,4-oxadiazol-2-yl)-2-((1RS,2RS)-2-((5-fluoropyridin-3-yl)oxy)cyclohexyl)isoindolin-1-one]
100%	O=C1c2cc(-c3nnc(C(F)F)o3)ccc2CN1[C@@H]1CCCC[C@H]1c1nc(C2CC2)no1 (racemic) [Example 561, 2-((1RS,2RS)-2-(3-cyclopropyl-1,2,4-oxadiazol-5-yl)cyclohexyl)-6-(5-(difluoromethyl)-1,3,4-oxadiazol-2-yl)isoindolin-1-one]
100%	CC(C)(C)OC(=O)N1CCC[C@H](N2Cc3ccc(-c4nnc(C(F)F)o4)cc3C2=O)[C@H]1c1ccc(F)cc1 (racemic) [Example 574, tert-butyl (2RS,3SR)-3-(6-(5-(difluoromethyl)-1,3,4-oxadiazol-2-yl)-1-oxo-1,3-dihydro-2H-isoindol-2-yl)-2-(4-fluorophenyl)piperidine-1-carboxylate]
100%	O=C1c2cc(-c3nnc(C(F)F)o3)ccc2CN1[C@H]1CCCN[C@@H]1c1ccc(F)cc1 (racemic) [Example 575, 6-(5-(difluoromethyl)-1,3,4-oxadiazol-2-yl)-2-((2RS,3SR)-2-(4-fluorophenyl)piperidin-3-yl)isoindolin-1-one]
99%	CC(F)(F)C(=O)N1CCC[C@H](N2Cc3ccc(-c4nnc(C(F)F)o4)cc3C2=O)[C@H]1c1ccc(F)cc1 (racemic) [Example 576, 6-(5-(difluoromethyl)-1,3,4-oxadiazol-2-yl)-2-((2RS,3SR)-1-(2,2-difluoropropanoyl)-2-(4-fluorophenyl)piperidin-3-yl)isoindolin-1-one]
97%	O=C1c2cc(-c3nnc(C(F)F)o3)ccc2CN1[C@H]1CCCN(C(=O)C(F)(F)C(F)(F)F)[C@@H]1c1ccc(F)cc1 (racemic) [Example 577, 6-(5-(difluoromethyl)-1,3,4-oxadiazol-2-yl)-2-((2RS,3SR)-2-(4-fluorophenyl)-1-(2,2,3,3,3-pentafluoropropanoyl)piperidin-3-yl)isoindolin-1-one]
100%	COC(=O)N1CCC[C@H](N2Cc3ccc(-c4nnc(C(F)F)o4)cc3C2=O)[C@H]1c1ccc(F)cc1 (racemic) [Example 578, methyl (2RS,3SR)-3-(6-(5-(difluoromethyl)-1,3,4-oxadiazol-2-yl)-1-oxo-1,3-dihydro-2H-isoindol-2-yl)-2-(4-fluorophenyl)piperidine-1-carboxylate]
